Experiments:
[1] = system: Nocardioides thermolilacinus D-aminoacylase; details: at concentrations as high as 100 g/l; cited from earlier work
[2] = molecular target: T1, Alcaligenes denitrificans subsp. xylosoxydans MI-4 D-aminoacylase mutant 3AD-0089 (A154V/M347A/R374F of SEQ ID NO: 1) (Alcaligenes xylosoxydans xylosoxydans, UniProt P72349, A154V/M347A/R374F); experiment: Inhibition/kinetics test of purified mutant D-aminoacylase 3AD-0089; assay type: biochemical
T1 construct: made in house; host or cells: E. coli
Procedure: (§1) The enzyme reaction can be achieved by incubating 1.0 ml of a reaction solution containing 20 mM N-acetyl-D-tryptophan (Sigma), 50 mM Tris-hydrochloride buffer (pH 7.5), and an enzyme solution at 30° C. for 10 minutes. Then, the reaction is stopped by adding 0.5 ml of a stop solution containing TCA (comprising 0.11 M trichloroacetic acid, 0.22 M sodium acetate, and 0.33 M acetic acid). The amount of D-tryptophan produced can be determined by TNBS method (Biosci. Biotech. Biochem., 58, 24 (1994)).
(§2) For example, 0.25 ml of 100 mM Na2B4O7 is added to 0.25 ml of the stop solution, 10 μl of 110 mM TNBS (trinitrobenzenesulfonic acid) solution is added to the mixed solution, and immediately thereafter, the resulting mixture is stirred. After the mixture is allowed to stand for five minutes, 1 ml of 100 mM NaHPO4 containing 1.5 mM Na2SO3 is added to the mixture to stop the color reaction. Then, the absorbance of the solution is determined at 420 nm. One unit of the enzyme activity is defined as the amount of enzyme that catalyzes the production of 1 μmol of D-tryptophan at 30° C. for one minute.
(§3) The rate constants of the reaction with N-acetyl-D-tryptophan and N-acetyl-L-tryptophan that is catalyzed by the thus-purified wild-type derived from Alcaligenes denitrificans subsp. xylosoxydans MI-4 or mutant D-aminoacylases of the present invention, can be determined according to the methods described in “Lectures for Biochemical Experiments 21: Introduction to Experimental Approach to Enzyme Kinetics” and “Basic Experimental Methods for Proteins and Enzymes, 2nd Ed.” Michaelis constant is represented by Km; the maximal rate is Vmax; inhibition constant is Ki; the constant for reaction inhibition by excess substrate is Ks′.
(§4) The mutant D-aminoacylase 3AD-0089 was purified from an E. coli transformant having the plasmid pSL-AD10 that contains DNA encoding the mutant D-aminoacylase 3AD-0089 by the same method as described in Example 19.
(§5) The D-aminoacylases purified in Examples 20 to 23 were tested for the inhibition by N-acetyl-D-tryptophan and N-acetyl-L-tryptophan. The reaction rate constants for N-acetyl-D-tryptophan and N-acetyl-L-tryptophan were determined according to the methods described in “Lectures for Biochemical Experiments 21: Introduction to Experimental Approach to Enzyme Kinetics” and “Basic Experimental Methods for Proteins and Enzymes, 2nd Ed.” Michaelis constant is represented by Km; the maximal rate is Vmax; inhibition constant is Ki; the constant for reaction inhibition by excess substrate is represented by Ks′. Km and Vmax were determined from a Lineweaver-Burk reciprocal plot; Ki was determined from a second-order plot (Royer); and Ks′ was determined from a [S] −1/v plot.

[3] = molecular target: T2, Alcaligenes denitrificans subsp. xylosoxydans MI-4 D-aminoacylase mutant R374-0017 (R374F of SEQ ID NO: 1) (Alcaligenes xylosoxydans xylosoxydans, UniProt P72349, R374F); experiment: Inhibition/kinetics test of purified mutant D-aminoacylase R374-0017; assay type: biochemical
T2 construct: made in house; host or cells: E. coli
Procedure: as §1, §2, §3
(§6) The mutant D-aminoacylase R374-0017 was purified from an E. coli transformant having the plasmid pSL-AD09 that contains DNA encoding the mutant D-aminoacylase R374-0017 by the same method as described in Example 19.
as §5

[4] = molecular target: T3, Alcaligenes denitrificans subsp. xylosoxydans MI-4 D-aminoacylase mutant M347-0133 (M347A of SEQ ID NO: 1) (Alcaligenes xylosoxydans xylosoxydans, UniProt P72349, M347A); experiment: Inhibition/kinetics test of purified mutant D-aminoacylase M347-0133; assay type: biochemical
T3 construct: made in house; host or cells: E. coli
Procedure: as §1, §2, §3
(§7) The mutant D-aminoacylase M347-0133 was purified from an E. coli transformant having the plasmid pSL-AD08 that contains DNA encoding the mutant D-aminoacylase M347-0133 by the same method as described in Example 19.
as §5

[5] = molecular target: T4, Alcaligenes denitrificans subsp. xylosoxydans MI-4 D-aminoacylase mutant A154-0043 (A154V of SEQ ID NO: 1) (Alcaligenes xylosoxydans xylosoxydans, UniProt P72349, A154V); experiment: Inhibition/kinetics test of purified mutant D-aminoacylase A154-0043; assay type: biochemical
T4 construct: made in house; host or cells: E. coli
Procedure: as §1, §2, §3
(§8) The mutant D-aminoacylase A154-0043 was purified from an E. coli transformant having the plasmid pSL-AD07 that contains DNA encoding the mutant D-aminoacylase A154-0043 by the same method as described in Example 19.
as §5

[6] = molecular target: Alcaligenes denitrificans subsp. xylosoxydans MI-4 D-aminoacylase, wild-type, SEQ ID NO: 1 (Alcaligenes xylosoxydans xylosoxydans, UniProt P72349); experiment: Inhibition/kinetics test of purified wild-type D-aminoacylase
[7] = system: Methylobacterium mesophilicum D-aminoacylase; details: at concentrations as high as 100 g/l; cited from earlier work
[8] = system: CC(=O)N[C@H](Cc1c[nH]c2ccccc12)C(=O)O; experiment: Inhibition/kinetics test of purified mutant D-aminoacylase 3AD-0089; assay type: biochemical, Alcaligenes denitrificans subsp. xylosoxydans MI-4; details: other: 30° C., pH7.5, for N-acetyl-D-tryptophan, pH 7.5
Procedure: as §1, §2, §3, §4, §5

[9] = system: CC(=O)N[C@H](Cc1c[nH]c2ccccc12)C(=O)O; experiment: Inhibition/kinetics test of purified mutant D-aminoacylase A154-0043; assay type: biochemical, Alcaligenes denitrificans subsp. xylosoxydans MI-4; details: other: 30° C., pH7.5, for N-acetyl-D-tryptophan, pH 7.5
Procedure: as §1, §2, §3, §8, §5

[10] = system: CC(=O)N[C@H](Cc1c[nH]c2ccccc12)C(=O)O; experiment: Inhibition/kinetics test of purified mutant D-aminoacylase M347-0133; assay type: biochemical, Alcaligenes denitrificans subsp. xylosoxydans MI-4; details: other: 30° C., pH7.5, for N-acetyl-D-tryptophan, pH 7.5
Procedure: as §1, §2, §3, §7, §5

[11] = system: CC(=O)N[C@H](Cc1c[nH]c2ccccc12)C(=O)O; experiment: Inhibition/kinetics test of purified mutant D-aminoacylase R374-0017; assay type: biochemical, Alcaligenes denitrificans subsp. xylosoxydans MI-4; details: other: 30° C., pH7.5, for N-acetyl-D-tryptophan, pH 7.5
Procedure: as §1, §2, §3, §6, §5

[12] = system: CC(=O)N[C@H](Cc1c[nH]c2ccccc12)C(=O)O; experiment: purified protein, by the assay type; details: other: 30° C., pH7.5, for N-acetyl-D-tryptophan, pH 7.5
[13] = D-aminoacylase activity assay (20 mM N-acetyl-D-tryptophan, TNBS method); assay type: biochemical; details: cell extract of E. coli JM109 transformant
Procedure: as §1, §2

[14] = 30° C., pH7.5, for N-acetyl-D-tryptophan
[15] = 30° C., pH7.5, substrate inhibition by N-acetyl-D-tryptophan

T2 sequence (P72349 whole entry R374F): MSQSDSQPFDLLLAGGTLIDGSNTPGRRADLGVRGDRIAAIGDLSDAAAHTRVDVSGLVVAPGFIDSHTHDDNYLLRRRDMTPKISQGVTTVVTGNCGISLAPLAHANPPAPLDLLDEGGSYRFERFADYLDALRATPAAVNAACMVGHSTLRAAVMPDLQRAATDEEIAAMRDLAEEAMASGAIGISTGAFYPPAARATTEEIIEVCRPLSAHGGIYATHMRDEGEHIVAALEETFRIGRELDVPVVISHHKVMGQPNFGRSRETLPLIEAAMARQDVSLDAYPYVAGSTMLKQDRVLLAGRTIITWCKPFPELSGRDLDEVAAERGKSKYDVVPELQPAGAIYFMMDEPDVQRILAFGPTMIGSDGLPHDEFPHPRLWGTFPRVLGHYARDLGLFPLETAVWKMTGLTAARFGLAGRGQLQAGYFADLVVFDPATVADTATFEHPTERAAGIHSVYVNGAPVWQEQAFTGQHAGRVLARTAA
T3 sequence (P72349 whole entry M347A): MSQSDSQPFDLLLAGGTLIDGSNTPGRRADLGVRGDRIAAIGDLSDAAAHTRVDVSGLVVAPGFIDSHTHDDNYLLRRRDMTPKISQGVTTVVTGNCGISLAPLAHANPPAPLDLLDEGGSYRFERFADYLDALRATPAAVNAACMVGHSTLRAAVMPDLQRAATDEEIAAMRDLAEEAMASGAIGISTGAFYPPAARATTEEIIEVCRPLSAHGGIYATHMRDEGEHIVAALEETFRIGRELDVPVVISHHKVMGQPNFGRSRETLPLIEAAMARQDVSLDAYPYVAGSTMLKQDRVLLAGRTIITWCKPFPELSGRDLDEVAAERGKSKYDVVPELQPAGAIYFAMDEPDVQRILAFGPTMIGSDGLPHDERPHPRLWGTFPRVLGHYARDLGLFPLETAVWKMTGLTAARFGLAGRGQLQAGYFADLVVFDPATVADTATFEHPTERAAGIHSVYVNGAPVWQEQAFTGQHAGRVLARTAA
T1 sequence (P72349 whole entry A154V/M347A/R374F): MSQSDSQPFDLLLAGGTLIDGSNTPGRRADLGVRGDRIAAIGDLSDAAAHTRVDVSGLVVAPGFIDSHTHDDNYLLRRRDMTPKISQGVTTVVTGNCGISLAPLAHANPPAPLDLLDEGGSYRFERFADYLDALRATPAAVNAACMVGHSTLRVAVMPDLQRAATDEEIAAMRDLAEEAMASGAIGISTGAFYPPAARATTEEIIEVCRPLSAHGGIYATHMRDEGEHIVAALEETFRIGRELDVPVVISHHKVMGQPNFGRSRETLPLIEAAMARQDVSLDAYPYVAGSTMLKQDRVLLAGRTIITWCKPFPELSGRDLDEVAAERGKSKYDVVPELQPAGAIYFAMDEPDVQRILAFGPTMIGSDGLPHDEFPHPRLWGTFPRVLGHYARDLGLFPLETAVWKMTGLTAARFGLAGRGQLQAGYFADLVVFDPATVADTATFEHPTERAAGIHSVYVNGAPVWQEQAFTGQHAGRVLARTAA
T4 sequence (P72349 whole entry A154V): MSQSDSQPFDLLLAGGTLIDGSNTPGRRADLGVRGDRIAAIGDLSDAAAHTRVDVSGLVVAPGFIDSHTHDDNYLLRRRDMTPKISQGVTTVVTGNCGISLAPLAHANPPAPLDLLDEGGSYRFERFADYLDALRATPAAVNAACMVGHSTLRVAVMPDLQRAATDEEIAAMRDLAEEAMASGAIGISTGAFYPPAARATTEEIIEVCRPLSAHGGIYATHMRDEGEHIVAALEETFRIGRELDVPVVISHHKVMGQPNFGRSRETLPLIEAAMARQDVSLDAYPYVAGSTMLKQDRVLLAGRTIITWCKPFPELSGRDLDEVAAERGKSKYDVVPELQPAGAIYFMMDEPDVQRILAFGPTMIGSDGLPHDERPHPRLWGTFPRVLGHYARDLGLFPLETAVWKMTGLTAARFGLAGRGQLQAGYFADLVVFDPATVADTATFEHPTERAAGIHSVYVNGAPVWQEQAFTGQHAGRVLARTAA

For `CC(=O)N[C@H](Cc1c[nH]c2ccccc12)C(=O)O` [N-acetyl-D-tryptophan], the “inhibition by the substrate” value [1] is listed as “hardly inhibited”, the “Vmax (Lineweaver-Burk reciprocal plot)” value [2, 14] is listed as 357 and the substrate inhibition ([2]; in the presence of 99 mM N-acetyl-D-tryptophan) is listed as “not detectable”. The “Vmax (Lineweaver-Burk reciprocal plot)” value [3, 14] was 1000, the “Ks′ (constant for reaction inhibition by excess substrate; [S]−1/v plot)” value [3, 15] was 93.00 and the “Vmax (Lineweaver-Burk reciprocal plot)” value [4, 14] was 1000. The “Ks′ (constant for reaction inhibition by excess substrate; [S]−1/v plot)” value [4, 15] was 77.00, the “Vmax (Lineweaver-Burk reciprocal plot)” value [5, 14] was 1031 and the “Ks′ (constant for reaction inhibition by excess substrate; [S]−1/v plot)” value [5, 15] was 13.67. The “Vmax (Lineweaver-Burk reciprocal plot)” value [6, 14] was 685, the “Ks′ (constant for reaction inhibition by excess substrate; [S]−1/v plot)” value [6, 15] was 1.29 and the “inhibition by the substrate” value [7] was “hardly inhibited”.

With `CC(=O)N[C@@H](Cc1c[nH]c2ccccc12)C(=O)O` [N-acetyl-L-tryptophan] the competitive inhibition ([2]; in the presence of 89 mM N-acetyl-L-tryptophan) was “not detectable”, the Ki [3] was 7.46 mM and the Ki [4] was 12.3 mM. It also gave a Ki [5] of 6.4 mM and a Ki [6] of 2.6 mM.

“Alcaligenes denitrificans subsp. xylosoxydans MI-4 D-aminoacylase mutant 3AD-0089 (A154V/M347A/R374F of SEQ ID NO: 1) (Achromobacter xylosoxidans; A154V/M347A/R374F)” showed a Km [8] of 1460 µM.

“Alcaligenes denitrificans subsp. xylosoxydans MI-4 D-aminoacylase mutant A154-0043 (A154V of SEQ ID NO: 1) (Achromobacter xylosoxidans; A154V)” showed a Km [9] of 3.44 mM.

Work on “Alcaligenes denitrificans subsp. xylosoxydans MI-4 D-aminoacylase mutant M347-0133 (M347A of SEQ ID NO: 1) (Achromobacter xylosoxidans; M347A)” yielded a Km [10] of 1420 µM.

“Alcaligenes denitrificans subsp. xylosoxydans MI-4 D-aminoacylase mutant R374-0017 (R374F of SEQ ID NO: 1) (Achromobacter xylosoxidans; R374F)” showed a Km [11] of 1940 µM.

“Alcaligenes denitrificans subsp. xylosoxydans MI-4 D-aminoacylase, wild-type, SEQ ID NO: 1 (Achromobacter xylosoxidans)” showed a Km [12] of 2530 µM.

B1: D-aminoacylase produced with the modified D-aminoacylase gene: wild-type amino acid sequence (SEQ ID NO: 1) expressed from codon-modified gene SEQ ID NO: 3 in plasmid pSL-ADD6 (protein)
chain: MSQSDSQPFDLLLAGGTLIDGSNTPGRRADLGVRGDRIAAIGDLSDAAAHTRVDVSGLVVAPGFIDSHTHDDNYLLRRRDMTPKISQGVTTVVTGNCGISLAPLAHANPPAPLDLLDEGGSYRFERFADYLDALRATPAAVNAACMVGHSTLRAAVMPDLQRAATDEEIAAMRDLAEEAMASGAIGISTGAFYPPAARATTEEIIEVCRPLSAHGGIYATHMRDEGEHIVAALEETFRIGRELDVPVVISHHKVMGQPNFGRSRETLPLIEAAMARQDVSLDAYPYVAGSTMLKQDRVLLAGRTIITWCKPFPELSGRDLDEVAAERGKSKYDVVPELQPAGAIYFMMDEPDVQRILAFGPTMIGSDGLPHDERPHPRLWGTFPRVLGHYARDLGLFPLETAVWKMTGLTAARFGLAGRGQLQAGYFADLVVFDPATVADTATFEHPTERAAGIHSVYVNGAPVWQEQAFTGQHAGRVLARTAA
modifications: Alcaligenes denitrificans subsp. xylosoxydans MI-4
With B1 the “D-aminoacylase activity of cell extract” value [13] was 86 U/mg.

Reference: US7282356B2, “D-aminoacylase mutants” (Daicel Chemical Industries, Ltd., priority 2002, dated 2007)
